# Data reported in article PMC10600239, “Selective MCL-1 inhibitor ABBV-467 is efficacious in tumor models but is associated with cardiac troponin increases in patients” (Communications Medicine, 2023).
# Experiments:
# [1] = Phase 1 first-in-human study (NCT04178902): efficacy (IMWG criteria, immunoglobulin, free light chain); assay type: in vivo; settings: for Kappa Lt Chain,Free/Lambda Lt Chain,Free / Immunoglobulin G: patient; for Kappa Lt Chain,Free/Lambda Lt Chain,Free: normal range 0.22-1.52; for Immunoglobulin G: normal range 5.65-17.65
# Description: This FIH study (NCT04178902) for ABBV-467 was a multicenter, open-label, dose-escalation study enrolling patients aged ≥18 years who had R/R MM, with the option to enroll R/R AML once recommended phase 2 dose (RP2D) was established. The study design was originally planned to consist of 2 parts: dose escalation and dose expansion, including a minimum of 6 patients treated during dose escalation at what was ultimately to be declared the RP2D. Patients must have received 3 or more prior lines of therapy including at least 1 or more immunomodulatory agents, 1 or more proteasome inhibitors, and 1 or more anti-CD38 monoclonal antibodies. Other eligibility criteria included: Eastern Cooperative Oncology Group performance status ≤2, measurable disease as defined by International Myeloma Working Group (IMWG) consensus criteria, an echocardiogram with an ejection fraction ≥50%, and adequate hematologic, hepatic, and renal function. The prespecified primary objectives were to characterize the safety and toxicity profiles, to establish the RP2D, and to determine the pharmacokinetic (PK) profile of ABBV-467 monotherapy. Safety evaluations included, but were not limited to, adverse event (AE) monitoring, physical examinations, vital sign measurements, electrocardiogram (ECG), cardiac enzyme monitoring, and clinical laboratory testing (hematology and chemistry) as a measure of safety and tolerability for the entire study duration. Parameters used to determine PK included maximum observed plasma concentration (Cmax), terminal elimination half-life (t1/2), area under the plasma concentration-time curve (AUC) from time 0 to time of last measurable concentration (AUCt), AUC from time 0 to infinity (AUC0-∞), and clearance using non-compartmental methods. Secondary objectives were preliminary evaluation of the efficacy of ABBV-467 in R/R MM and R/R AML. Preliminary efficacy endpoints were overall response rate (ORR), clinical benefit rate (CBR), and duration of response (DOR) as evaluated per adapted IMWG[36] criteria for MM and per adapted International Working Group (IWG)[37] and European Leukemia Net (ELN)[38] criteria for AML.
# [2] = biological target: off-target receptors, ion channels, and transporters (Homo sapiens, UniProt O43353); experiment: Off-target profiling (Supplementary Data 1); settings: TR-FRET Kinome; Millipore A-1499319.7 .1(Subs Conc)
# [3] = biological target: off-target receptors, ion channels, and transporters (Homo sapiens, UniProt P05771); experiment: Off-target profiling (Supplementary Data 1); settings: TR-FRET Kinome, SignalChem A-1167389.7 .05(Subs Conc)
# [4] = biological target: off-target receptors, ion channels, and transporters (Homo sapiens, UniProt P07333); experiment: Off-target profiling (Supplementary Data 1); settings: TR-FRET Kinome; Invitrogen A-1167389.7 .004(Subs Conc)
# [5] = biological target: off-target receptors, ion channels, and transporters (Homo sapiens, UniProt P14416); experiment: Off-target profiling (Supplementary Data 1)
# [6] = biological target: off-target receptors, ion channels, and transporters (Homo sapiens, UniProt P23219); experiment: Off-target profiling (Supplementary Data 1); settings: CEREP
# [7] = biological target: off-target receptors, ion channels, and transporters (Homo sapiens, UniProt P28482); experiment: Off-target profiling (Supplementary Data 1); settings: TR-FRET Kinome; Invitrogen A-1224127.6 .05(Subs Conc)
# [8] = biological target: off-target receptors, ion channels, and transporters (Homo sapiens, UniProt P35348); experiment: Off-target profiling (Supplementary Data 1)
# [9] = biological target: off-target receptors, ion channels, and transporters (Homo sapiens, UniProt P37231); experiment: Off-target profiling (Supplementary Data 1); settings: Bioprofiling 6pt Ag
# [10] = biological target: off-target receptors, ion channels, and transporters (Homo sapiens, UniProt P43405); experiment: Off-target profiling (Supplementary Data 1); settings: TR-FRET Kinome; Invitrogen A-1167389.7 .001(Subs Conc)
# [11] = biological target: off-target receptors, ion channels, and transporters (Homo sapiens, UniProt P50750); experiment: Off-target profiling (Supplementary Data 1); settings: TR-FRET Kinome; Invitrogen A-1180691.2 .01(Subs Conc)
# [12] = biological target: off-target receptors, ion channels, and transporters (Homo sapiens, UniProt P52333); experiment: Off-target profiling (Supplementary Data 1); settings: TR-FRET Kinome; Invitrogen A-1180691.2 .05(Subs Conc)
# [13] = biological target: off-target receptors, ion channels, and transporters (Homo sapiens, UniProt Q96GD4); experiment: Off-target profiling (Supplementary Data 1); settings: TR-FRET Kinome; Invitrogen A-1202211.2 .05(Subs Conc)
# [14] = biological target: off-target receptors, ion channels, and transporters (Homo sapiens, UniProt Q9BYT3); experiment: Off-target profiling (Supplementary Data 1); settings: TR-FRET Kinome; Invitrogen A-1167389.7 .05(Subs Conc)
# [15] = biological target: off-target receptors, ion channels, and transporters (Homo sapiens, UniProt Q9UL54); experiment: Off-target profiling (Supplementary Data 1); settings: TR-FRET Kinome; Invitrogen A-1169612.6 .2(Subs Conc)
# Sequence of off-target receptors, ion channels, and transporters (Homo sapiens, UniProt P05771) (P05771 2-671): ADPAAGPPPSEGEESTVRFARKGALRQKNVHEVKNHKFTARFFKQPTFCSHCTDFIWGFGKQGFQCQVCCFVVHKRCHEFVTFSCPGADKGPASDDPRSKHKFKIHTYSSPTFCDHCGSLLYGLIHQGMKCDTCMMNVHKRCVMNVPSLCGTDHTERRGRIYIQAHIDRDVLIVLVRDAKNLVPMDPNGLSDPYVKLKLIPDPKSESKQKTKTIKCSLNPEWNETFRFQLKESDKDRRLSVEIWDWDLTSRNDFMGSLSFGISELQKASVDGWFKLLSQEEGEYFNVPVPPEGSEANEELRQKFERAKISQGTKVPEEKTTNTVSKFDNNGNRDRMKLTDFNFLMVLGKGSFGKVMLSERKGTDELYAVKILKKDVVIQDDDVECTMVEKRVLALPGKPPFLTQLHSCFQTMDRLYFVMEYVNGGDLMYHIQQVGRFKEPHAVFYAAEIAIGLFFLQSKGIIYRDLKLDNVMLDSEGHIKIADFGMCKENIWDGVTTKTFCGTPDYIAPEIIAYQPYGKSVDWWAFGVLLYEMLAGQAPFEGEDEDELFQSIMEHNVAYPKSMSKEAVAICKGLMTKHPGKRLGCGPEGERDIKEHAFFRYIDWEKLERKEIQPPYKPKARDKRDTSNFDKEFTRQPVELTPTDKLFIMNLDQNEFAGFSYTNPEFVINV
# Sequence of off-target receptors, ion channels, and transporters (Homo sapiens, UniProt P14416) (P14416 whole entry): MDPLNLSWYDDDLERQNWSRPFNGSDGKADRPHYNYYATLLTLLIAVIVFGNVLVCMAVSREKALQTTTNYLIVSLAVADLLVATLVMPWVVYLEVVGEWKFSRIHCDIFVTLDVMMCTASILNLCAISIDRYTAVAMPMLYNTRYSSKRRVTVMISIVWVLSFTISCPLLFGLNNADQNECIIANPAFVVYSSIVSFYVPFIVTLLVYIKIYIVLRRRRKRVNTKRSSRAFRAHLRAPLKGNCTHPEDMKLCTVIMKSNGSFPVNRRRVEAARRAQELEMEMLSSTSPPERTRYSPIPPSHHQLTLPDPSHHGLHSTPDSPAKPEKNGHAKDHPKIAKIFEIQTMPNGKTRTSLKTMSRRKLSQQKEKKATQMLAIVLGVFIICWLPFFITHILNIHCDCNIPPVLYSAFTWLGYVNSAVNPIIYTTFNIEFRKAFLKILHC
# Sequence of off-target receptors, ion channels, and transporters (Homo sapiens, UniProt P35348) (P35348 whole entry): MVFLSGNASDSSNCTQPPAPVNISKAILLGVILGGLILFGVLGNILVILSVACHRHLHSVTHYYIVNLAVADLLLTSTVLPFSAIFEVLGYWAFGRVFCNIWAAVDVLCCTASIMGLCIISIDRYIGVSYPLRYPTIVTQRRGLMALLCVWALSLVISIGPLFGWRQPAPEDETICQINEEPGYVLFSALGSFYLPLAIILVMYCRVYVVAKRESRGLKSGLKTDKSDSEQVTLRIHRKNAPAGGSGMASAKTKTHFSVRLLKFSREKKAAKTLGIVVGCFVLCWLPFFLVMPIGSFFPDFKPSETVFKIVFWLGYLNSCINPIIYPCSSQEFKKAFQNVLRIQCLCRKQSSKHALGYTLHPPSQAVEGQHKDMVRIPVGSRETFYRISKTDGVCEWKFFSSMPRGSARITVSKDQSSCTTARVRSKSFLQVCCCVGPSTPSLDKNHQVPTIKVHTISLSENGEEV
# Sequence of off-target receptors, ion channels, and transporters (Homo sapiens, UniProt P07333) (P07333 20-972): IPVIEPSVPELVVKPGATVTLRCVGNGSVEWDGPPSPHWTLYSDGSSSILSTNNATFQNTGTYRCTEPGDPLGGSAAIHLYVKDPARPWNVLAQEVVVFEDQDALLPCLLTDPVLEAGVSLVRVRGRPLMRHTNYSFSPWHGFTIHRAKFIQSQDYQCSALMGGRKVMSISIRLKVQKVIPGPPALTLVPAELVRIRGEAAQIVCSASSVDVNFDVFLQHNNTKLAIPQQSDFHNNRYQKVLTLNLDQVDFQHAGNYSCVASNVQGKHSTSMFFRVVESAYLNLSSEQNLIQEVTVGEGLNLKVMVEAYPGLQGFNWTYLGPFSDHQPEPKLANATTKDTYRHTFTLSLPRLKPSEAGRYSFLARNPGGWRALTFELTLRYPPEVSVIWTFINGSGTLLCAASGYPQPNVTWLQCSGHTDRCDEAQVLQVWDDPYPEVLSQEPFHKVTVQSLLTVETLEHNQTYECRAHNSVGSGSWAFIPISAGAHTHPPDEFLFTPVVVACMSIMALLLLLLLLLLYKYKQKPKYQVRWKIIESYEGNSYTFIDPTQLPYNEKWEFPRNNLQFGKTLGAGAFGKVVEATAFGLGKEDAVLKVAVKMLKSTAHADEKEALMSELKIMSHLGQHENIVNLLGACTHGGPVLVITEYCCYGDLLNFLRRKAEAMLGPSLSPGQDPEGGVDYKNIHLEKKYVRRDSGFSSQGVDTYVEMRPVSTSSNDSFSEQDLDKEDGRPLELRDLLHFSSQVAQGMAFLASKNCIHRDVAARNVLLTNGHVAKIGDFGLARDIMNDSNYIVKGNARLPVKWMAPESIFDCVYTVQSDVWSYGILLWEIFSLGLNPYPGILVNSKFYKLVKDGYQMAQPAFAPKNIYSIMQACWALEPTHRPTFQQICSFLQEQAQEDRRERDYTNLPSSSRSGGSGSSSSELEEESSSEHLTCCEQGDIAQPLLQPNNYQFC
# Sequence of off-target receptors, ion channels, and transporters (Homo sapiens, UniProt P37231) (P37231 whole entry): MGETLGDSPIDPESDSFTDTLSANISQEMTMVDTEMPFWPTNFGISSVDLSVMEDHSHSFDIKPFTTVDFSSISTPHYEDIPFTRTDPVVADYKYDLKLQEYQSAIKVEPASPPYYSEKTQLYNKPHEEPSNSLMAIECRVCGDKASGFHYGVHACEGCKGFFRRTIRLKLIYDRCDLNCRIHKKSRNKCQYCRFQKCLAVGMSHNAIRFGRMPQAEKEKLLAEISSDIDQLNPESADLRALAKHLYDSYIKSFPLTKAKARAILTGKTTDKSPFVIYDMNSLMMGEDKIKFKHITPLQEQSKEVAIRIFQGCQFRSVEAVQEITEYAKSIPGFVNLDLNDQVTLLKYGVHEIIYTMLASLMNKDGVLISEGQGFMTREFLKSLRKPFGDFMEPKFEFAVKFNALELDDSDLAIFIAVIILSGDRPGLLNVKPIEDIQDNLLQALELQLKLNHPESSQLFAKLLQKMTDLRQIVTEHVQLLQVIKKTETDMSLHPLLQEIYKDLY
# Sequence of off-target receptors, ion channels, and transporters (Homo sapiens, UniProt P52333) (P52333 whole entry): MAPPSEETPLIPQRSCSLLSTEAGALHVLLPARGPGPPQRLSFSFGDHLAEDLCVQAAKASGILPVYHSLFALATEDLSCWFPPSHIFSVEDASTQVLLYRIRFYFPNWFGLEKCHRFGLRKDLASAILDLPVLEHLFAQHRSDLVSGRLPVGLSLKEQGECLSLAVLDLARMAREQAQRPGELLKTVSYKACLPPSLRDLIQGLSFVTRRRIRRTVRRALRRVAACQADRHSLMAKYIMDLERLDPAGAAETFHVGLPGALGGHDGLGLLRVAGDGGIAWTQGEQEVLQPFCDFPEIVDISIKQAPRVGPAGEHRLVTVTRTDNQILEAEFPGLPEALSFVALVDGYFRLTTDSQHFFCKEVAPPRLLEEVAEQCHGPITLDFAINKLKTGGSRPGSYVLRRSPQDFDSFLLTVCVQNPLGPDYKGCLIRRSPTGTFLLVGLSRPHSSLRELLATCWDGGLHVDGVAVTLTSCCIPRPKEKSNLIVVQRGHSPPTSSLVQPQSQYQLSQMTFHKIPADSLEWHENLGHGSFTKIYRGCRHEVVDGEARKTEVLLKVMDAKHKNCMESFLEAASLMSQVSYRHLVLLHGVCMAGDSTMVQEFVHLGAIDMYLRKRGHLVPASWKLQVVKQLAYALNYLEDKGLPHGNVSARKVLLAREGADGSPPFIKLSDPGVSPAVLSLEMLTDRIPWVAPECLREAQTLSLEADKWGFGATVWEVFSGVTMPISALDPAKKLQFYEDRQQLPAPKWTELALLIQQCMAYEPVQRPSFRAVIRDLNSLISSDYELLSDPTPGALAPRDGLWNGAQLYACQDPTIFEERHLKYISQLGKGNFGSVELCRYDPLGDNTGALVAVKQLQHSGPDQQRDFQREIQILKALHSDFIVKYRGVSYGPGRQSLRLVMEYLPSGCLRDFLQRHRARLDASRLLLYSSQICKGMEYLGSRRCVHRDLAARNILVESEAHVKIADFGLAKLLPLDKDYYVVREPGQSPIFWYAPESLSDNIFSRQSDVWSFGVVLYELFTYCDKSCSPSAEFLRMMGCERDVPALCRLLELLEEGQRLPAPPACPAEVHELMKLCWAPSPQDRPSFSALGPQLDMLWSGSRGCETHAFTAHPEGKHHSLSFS
# Sequence of off-target receptors, ion channels, and transporters (Homo sapiens, UniProt P50750) (P50750 whole entry): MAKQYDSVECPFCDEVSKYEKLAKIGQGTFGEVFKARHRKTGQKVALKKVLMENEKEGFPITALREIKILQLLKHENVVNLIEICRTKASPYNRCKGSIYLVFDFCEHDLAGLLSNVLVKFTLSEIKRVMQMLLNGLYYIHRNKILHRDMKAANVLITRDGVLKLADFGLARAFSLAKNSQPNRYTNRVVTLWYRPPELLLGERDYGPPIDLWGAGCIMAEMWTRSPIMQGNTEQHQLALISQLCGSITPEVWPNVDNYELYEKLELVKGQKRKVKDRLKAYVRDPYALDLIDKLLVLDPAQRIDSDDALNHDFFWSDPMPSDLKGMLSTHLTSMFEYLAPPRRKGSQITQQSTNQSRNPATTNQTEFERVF
# Sequence of off-target receptors, ion channels, and transporters (Homo sapiens, UniProt P28482) (P28482 whole entry): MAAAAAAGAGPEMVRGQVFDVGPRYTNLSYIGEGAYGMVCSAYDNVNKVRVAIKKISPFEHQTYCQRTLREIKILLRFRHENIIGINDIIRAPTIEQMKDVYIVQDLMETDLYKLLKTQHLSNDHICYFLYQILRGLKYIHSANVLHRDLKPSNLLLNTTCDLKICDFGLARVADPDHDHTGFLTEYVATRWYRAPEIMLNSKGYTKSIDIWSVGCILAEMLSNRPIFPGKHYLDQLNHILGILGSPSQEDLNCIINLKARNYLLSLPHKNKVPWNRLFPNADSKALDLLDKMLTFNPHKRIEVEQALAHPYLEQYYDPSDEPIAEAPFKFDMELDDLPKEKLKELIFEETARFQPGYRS
structure (smiles),measurement,setting,value
Cc1c(Cl)c2c(Cl)c(C)c1-c1c(-c3ccc(F)cc3)sc3ncnc(c13)O[C@@H](C(=O)O)Cc1cc(ccc1OCc1ccnc(-c3ccc(OC[C@H]4COCCO4)cc3)n1)OC[C@@H](CN1CCN(C)CC1)O2 [ABBV-467],duration of stable disease,"[1]; 1 patient, […] dose level",approximately 8 months
same,objective responses,[1]; 8 patients with R/R MM,No objective responses
same,"Kappa Lt Chain,Free/Lambda Lt Chain,Free",[1]; LBDY 1,31.35 RATIO
same,Immunoglobulin G,[1]; LBDY 1,28.1 g/L
same,"Kappa Lt Chain,Free/Lambda Lt Chain,Free",[1]; LBDY 29,25.56 RATIO
same,Immunoglobulin G,[1]; LBDY 29,26.9 g/L
same,"Kappa Lt Chain,Free/Lambda Lt Chain,Free",[1]; LBDY 57,23.38 RATIO
same,Immunoglobulin G,[1]; LBDY 57,23.3 g/L
same,"Kappa Lt Chain,Free/Lambda Lt Chain,Free",[1]; LBDY 85,6.92 RATIO
same,Immunoglobulin G,[1]; LBDY 85,28.9 g/L
same,"Kappa Lt Chain,Free/Lambda Lt Chain,Free",[1]; LBDY 115,6.82 RATIO
same,Immunoglobulin G,[1]; LBDY 115,30.6 g/L
same,"Kappa Lt Chain,Free/Lambda Lt Chain,Free",[1]; LBDY 143,7.51 RATIO
same,Immunoglobulin G,[1]; LBDY 143,29.6 g/L
same,"Kappa Lt Chain,Free/Lambda Lt Chain,Free",[1]; LBDY 171,8.26 RATIO
same,Immunoglobulin G,[1]; LBDY 171,24.4 g/L
same,"Kappa Lt Chain,Free/Lambda Lt Chain,Free",[1]; LBDY 199,3.99 RATIO
same,Immunoglobulin G,[1]; LBDY 199,40.2 g/L
same,"Kappa Lt Chain,Free/Lambda Lt Chain,Free",[1]; LBDY 227,5.42 RATIO
same,Immunoglobulin G,[1]; LBDY 227,29.5 g/L
same,"Kappa Lt Chain,Free/Lambda Lt Chain,Free",[1]; LBDY 238,8.01 RATIO
same,Immunoglobulin G,[1]; LBDY 238,32.9 g/L
same,"Kappa Lt Chain,Free/Lambda Lt Chain,Free",[1]; LBDY -6,31.47 RATIO
same,Immunoglobulin G,[1]; LBDY -6,23.8 g/L
same,RIPK2 - IC50,[2],> 10 µM
same,IC50,[3]; read-out: PKCbeta2 - IC50,> 10 µM
same,Ki,[3]; read-out: PKCbeta2 - Ki,> 3.9 µM
same,CSF1R - IC50,[4],> 10 µM
same,D2L CHO Human - EC50,[5]; Bioprofiling 6pt Ag,> 10 µM
same,D2L CHO Human - IC50,"[5]; Bioprofiling 6pt Antag, Quinpirole",> 10 µM
same,COX1 Human (Enzymatic Assay) - IC50,[6],8.6 µM
same,Erk2 - IC50,[7],> 10 µM
same,EC50,"[8]; read-out: Alpha1A CHO Human - EC50, Bioprofiling 6pt Ag",> 10 µM
same,IC50,"[8]; read-out: Alpha1A CHO Human - IC50, Bioprofiling 6pt Antag, A-61603",> 10 µM
same,PPARgamma Human - EC50,[9],> 10 µM
same,Syk - IC50,[10],> 10 µM
same,CDK9/Cyclin K - IC50,[11],4.24 µM
same,JAK3 - IC50,[12],> 10 µM
same,Aurora1 - IC50,[13],> 10 µM
same,STK33 - IC50,[14],> 10 µM
same,TAOK2 - IC50,[15],> 10 µM
